Measurements: PubChem BioAssay AID1963967 (Molecular Pharmacology Branch, DTP, NCI, 2024)

Tested on: 855422-203-R-J1-PDC spheroids with HUVEC/MSC, viability
Assay: Anticancer human tumor 855422-203-R-J1-PDC patient-derived bladder carcinoma cell line growth inhibition [PI3K]
Conditions: for viability, T/C: stronger effect = lower value; active = viability on the fitted dose curve at most 10% of control; inactive = the rest
Summary of the method: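 Multi-cell spheroids combine tumor cells with HUVEC and human MSCs, treated with targeted agents alone or with inavolisib, alpelisib, duvelisib or copanlisib. Concentrations fall in half-log steps from at or near clinical Cmax, or from 10 microM where Cmax is unknown; viability read-out.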

[1] = curve of first compound, second compound 0.0316 µM
[2] = curve of first compound, second compound 0.1 µM
[3] = curve of first compound, second compound 0.316 µM
[4] = curve of first compound, second compound 1 µM
[5] = second compound 0.0316 µM, first compound 0.0316 µM
[6] = second compound 0.0316 µM, first compound 0.1 µM
[7] = second compound 0.0316 µM, first compound 0.316 µM
[8] = second compound 0.0316 µM, first compound 1 µM
[9] = second compound 0.0316 µM, first compound 3.16 µM
[10] = second compound 0.0316 µM, first compound 10 µM
[11] = second compound 0.1 µM, first compound 0.0316 µM
[12] = second compound 0.1 µM, first compound 0.1 µM
[13] = second compound 0.1 µM, first compound 0.316 µM
[14] = second compound 0.1 µM, first compound 1 µM
[15] = second compound 0.1 µM, first compound 3.16 µM
[16] = second compound 0.1 µM, first compound 10 µM
[17] = second compound 0.316 µM, first compound 0.0316 µM
[18] = second compound 0.316 µM, first compound 0.1 µM
[19] = second compound 0.316 µM, first compound 0.316 µM
[20] = second compound 0.316 µM, first compound 1 µM
[21] = second compound 0.316 µM, first compound 3.16 µM
[22] = second compound 0.316 µM, first compound 10 µM
[23] = second compound 1 µM, first compound 0.0316 µM
[24] = second compound 1 µM, first compound 0.1 µM
[25] = second compound 1 µM, first compound 0.316 µM
[26] = second compound 1 µM, first compound 1 µM
[27] = second compound 1 µM, first compound 3.16 µM
[28] = second compound 1 µM, first compound 10 µM
[29] = curve of first compound, second compound 3.16 µM
[30] = curve of first compound, second compound 10 µM
[31] = second compound 3.16 µM, first compound 0.0316 µM
[32] = second compound 3.16 µM, first compound 0.1 µM
[33] = second compound 3.16 µM, first compound 0.316 µM
[34] = second compound 3.16 µM, first compound 1 µM
[35] = second compound 3.16 µM, first compound 3.16 µM
[36] = second compound 3.16 µM, first compound 10 µM
[37] = second compound 10 µM, first compound 0.0316 µM
[38] = second compound 10 µM, first compound 0.1 µM
[39] = second compound 10 µM, first compound 0.316 µM
[40] = second compound 10 µM, first compound 1 µM
[41] = second compound 10 µM, first compound 3.16 µM
[42] = second compound 10 µM, first compound 10 µM
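Note: agents incubated with spheroids for one week before read-out.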
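Throughout, for viability, T/C: 100% = DMSO vehicle-treated control wells.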

Cn1ncc(Cl)c1-c1cc(C(=O)NC(CN)Cc2cccc(F)c2)sc1Cl (stereo not drawn) + COc1c(OCCCN2CCOCC2)ccc2c3n(c(=NC(=O)c4cnc(N)nc4)nc12)CCN3
< 0.0316 µM: IC50 [2] | IC50 [3] | IC50 [4]
0.624 µM: IC50 (curve of first compound, second compound 0.01 µM)
0.728 µM: IC50 (curve of first compound, second compound 0.00316 µM)
inactive: viability, T/C (second compound 0.00316 µM, first compound 0.0316 µM) 88.5% | viability, T/C (second compound 0.00316 µM, first compound 0.1 µM) 73.7% | viability, T/C (second compound 0.00316 µM, first compound 0.316 µM) 63.2% | viability, T/C (second compound 0.00316 µM, first compound 1 µM) 45.5% | viability, T/C (second compound 0.00316 µM, first compound 3.16 µM) 26.9% | viability, T/C (second compound 0.01 µM, first compound 0.0316 µM) 77.8% | viability, T/C (second compound 0.01 µM, first compound 0.1 µM) 69.8% | viability, T/C (second compound 0.01 µM, first compound 0.316 µM) 62% | viability, T/C (second compound 0.01 µM, first compound 1 µM) 42.7% | viability, T/C (second compound 0.01 µM, first compound 3.16 µM) 19.6% | viability, T/C [5] 60.7% | viability, T/C [6] 54.4% | viability, T/C [7] 45.2% | viability, T/C [8] 29.4% | viability, T/C [9] 13% | viability, T/C [11] 27.6% | viability, T/C [12] 27.3% | viability, T/C [13] 19.7% | viability, T/C [14] 15.4%
active: viability, T/C (second compound 0.00316 µM, first compound 10 µM) 6.73% | viability, T/C (second compound 0.01 µM, first compound 10 µM) 5.83% | viability, T/C [10] 3.13% | viability, T/C [15] 7.63% | viability, T/C [16] 0.88% | viability, T/C [17] 8.42% | viability, T/C [18] 7.12% | viability, T/C [19] 8.39% | viability, T/C [20] 7.12% | viability, T/C [21] 4.22% | viability, T/C [22] 0.34% | viability, T/C [23] 3.34% | viability, T/C [24] 4.22% | viability, T/C [25] 3.37% | viability, T/C [26] 4.04% | viability, T/C [27] 1.54% | viability, T/C [28] 1.32%
0.178 µM: IC50 [1]

C[C@@H](NC(=O)c1ncnc(N)c1Cl)c1ncc(C(=O)Nc2cc(C(F)(F)F)c(Cl)cn2)s1 + CC(Nc1ncnc2nc[nH]c12)c1cc2cccc(Cl)c2c(=O)n1-c1ccccc1
inactive: viability, T/C [5] 120% | viability, T/C [6] 109% | viability, T/C [7] 109% | viability, T/C [8] 116% | viability, T/C [9] 131% | viability, T/C [10] 117% | viability, T/C [11] 112% | viability, T/C [12] 100% | viability, T/C [13] 111% | viability, T/C [14] 114% | viability, T/C [15] 116% | viability, T/C [16] 133% | viability, T/C [17] 100% | viability, T/C [18] 115% | viability, T/C [19] 105% | viability, T/C [20] 103% | viability, T/C [21] 136% | viability, T/C [22] 109% | viability, T/C [23] 85.2% | viability, T/C [24] 102% | viability, T/C [25] 101% | viability, T/C [26] 106% | viability, T/C [27] 120% | viability, T/C [28] 107% | viability, T/C [31] 94.8% | viability, T/C [32] 108% | viability, T/C [33] 94.3% | viability, T/C [34] 93.3% | viability, T/C [35] 106% | viability, T/C [36] 82.7% | viability, T/C [37] 82.7% | viability, T/C [38] 75.7% | viability, T/C [39] 93% | viability, T/C [40] 85.6% | viability, T/C [41] 69.6% | viability, T/C [42] 54.4%
> 10 µM: IC50 [1] | IC50 [2] | IC50 [3] | IC50 [4] | IC50 [29] | IC50 [30]

C#Cc1c(F)ccc2cc(O)cc(-c3ncc4c(N5CC6CCC(C5)N6)nc(OCC56CCCN5CC(F)C6)nc4c3F)c12 (stereo not drawn) + Cc1nc(NC(=O)N2CCCC2C(N)=O)sc1-c1ccnc(C(C)(C)C(F)(F)F)c1
> 10 µM: IC50 [1] | IC50 [2] | IC50 [3] | IC50 [4]
< 0.0316 µM: IC50 [29] | IC50 [30]
inactive: viability, T/C [5] 106% | viability, T/C [6] 92.8% | viability, T/C [7] 108% | viability, T/C [8] 95% | viability, T/C [9] 115% | viability, T/C [10] 115% | viability, T/C [11] 100% | viability, T/C [12] 88.6% | viability, T/C [13] 103% | viability, T/C [14] 93.9% | viability, T/C [15] 115% | viability, T/C [16] 113% | viability, T/C [17] 91.5% | viability, T/C [18] 92.9% | viability, T/C [19] 97.6% | viability, T/C [20] 94.4% | viability, T/C [21] 97.4% | viability, T/C [22] 102% | viability, T/C [23] 70.5% | viability, T/C [24] 78.3% | viability, T/C [25] 70.7% | viability, T/C [26] 73.2% | viability, T/C [27] 75% | viability, T/C [28] 63.3% | viability, T/C [31] 41.5% | viability, T/C [32] 48.6% | viability, T/C [33] 47.1% | viability, T/C [34] 42.9% | viability, T/C [35] 40.6% | viability, T/C [36] 31.8% | viability, T/C [37] 24.6% | viability, T/C [38] 21.5% | viability, T/C [39] 22.7% | viability, T/C [40] 22.3% | viability, T/C [41] 19% | viability, T/C [42] 7.62%

CC(Cn1ccc(-c2ccc(C#N)c(Cl)c2)n1)NC(=O)c1cc(C(C)O)[nH]n1 (stereo not drawn)
inactive: viability, T/C (compound 0.0316 µM) 108% [middle of 4 runs] | viability, T/C (compound 0.1 µM) 96.9% [middle of 4 runs] | viability, T/C (compound 0.316 µM) 110% [middle of 4 runs] | viability, T/C (compound 1 µM) 93.5% [middle of 4 runs] | viability, T/C (compound 3.16 µM) 97.2% [middle of 4 runs] | viability, T/C (compound 10 µM) 86.2% [middle of 4 runs]
> 10 µM: IC50 (curve of compound)
